Test results from US10550113B2, “2-phenyl-3H-imidazo[4,5-B]pyridine derivates useful as inhibitors of mammalian tyrosine kinase ROR1 activity” (Kancera AB, priority 2015, dated 2020).

Key:
PBMC from CLL patients = test: CellTiter-Blue cell viability assay, cell toxicity in PBMC from CLL patients; assay type: cell-based; conditions: Homo sapiens, 50 000 cells/well, cultured 24, 48 and 72 h (time of the IC50 not stated), % cytotoxicity vs 0.2% DMSO
Method: (§1) Method for Measurement of Cell Toxicity
(§2) The CellTiter-Blue® Cell Viability Assay provides a homogeneous, fluorometric method for estimating the number of viable cells present in multi-well plates. The assay uses the indicator dye resazurin to measure the metabolic capacity of cells. Viable cells retain the ability to reduce resazurin into resorufin, which is highly fluorescent.
(§3) Stock solutions (10 or 100 mM in DMSO) of compounds were serially diluted 1:2 in 11 concentrations and 25 nL/well (100 mM stock) or 50 nL/well (10 mM stock) were acoustically dispensed in assay plates with an EDC acoustic dispenser. Final starting concentration in the assay was 20 μM (0.2% DMSO) or 100 μM (0.1% DMSO) for test compounds.
(§4) Peripheral blood mononuclear cells (PBMC) from CLL patients or healthy volunteers were seeded in assay plates (384-well black/clear, Greiner #781091) pre-dispensed with compounds, 25 μL/well, and cultured for 24, 48 and 72 h. The cell concentration was 50 000 cells/well for PBMC from CLL patients or healthy volunteers. After 24, 48 and 72 h culture, Celltiter Blue reagent was added (5 μL/well) and the plates were incubated for 2 h. The plates were read in an Envision fluorescence reader (PerkinElmer) with Ex544 nm/Em590 nm. Results were calculated as % cytotoxicity compared to background (cells treated with 0.2% DMSO).
(§5) Thus, IC50 values for cell toxicity in PBMC from CLL patients as well as healthy volunteers for some compounds of the invention are shown in Table 3.

[1] = CellTiter-Blue cell viability assay, cell toxicity in PBMC from healthy volunteers; assay type: cell-based; conditions: human, 50 000 cells/well, cultured 24, 48 and 72 h (time of the IC50 not stated), % cytotoxicity vs 0.2% DMSO
Method: as §1, §2, §3, §4, §5

Row | Structure (SMILES) | IC50 (PBMC from CLL patients) [nM] | IC50 [1] [nM]
1 | CNC(=O)COc1ccc(-c2nc3c(NC4CCN(Cc5ccc(C)cc5)CC4)c(Cl)cnc3[nH]2)cc1 [Example 82, 2-[4-(6-chloro-7-{[1-(4-methylbeiizyl)piperidin-4-yl]amino}-3H-imidazo[4,5-b]pyridin-2-yl)phenoxy]-N-methylacetamide] | 480 | > 20000
2 | CN(C)C(=O)COc1ccc(-c2nc3c(N[C@H]4CCN(Cc5ccccc5)C4)c(Cl)cnc3[nH]2)cc1 [Example 64, 2-[4-(7-{[(3S)-1-benzylpyrrolidin-3-yl]amino}-6-chloro-3H-imidazo[4,5-b]pyridin-2-yl)phenoxy]-N,N-dimethylacetamide] | 890 | 13900
3 | CNC(=O)COc1ccc(-c2nc3c(NC4CCN(C)CC4)c(Br)cnc3[nH]2)c(C)c1 [Example 159, 2-(4-{6-bromo-7-[(1-methylpiperidin-4-yl)amino]-3H-imidazo[4,5-b]pyridin-2-yl}-3-methylphenoxy)-N-methylacetamide] | 310 | > 20000
4 | CNC(=O)COc1ccc(-c2nc3c(NC4CCN(Cc5ccccc5)CC4)c(Cl)cnc3[nH]2)cc1 [Example 11, 2-(4-{7-[(1-benzylpiperidin-4-yl)amino]-6-chloro-3H-imidazo[4,5-b]pyridin-2-yl}phenoxy)-N-methylacetamide] | 440 | 14800
5 | CNC(=O)Cc1ccc(-c2nc3c(NC4CCN(C)CC4)c(Cl)cnc3[nH]2)cc1 [Example 232, 2-(4-{6-chloro-7-[(1-methylpiperidin-4-yl)amino]-3H-imidazo[4,5-b]pyridin-2-yl}phenyl)-N-methylacetamide] | 570 | > 20000
6 | CNC(=O)COc1ccc(-c2nc3c(NC4CCN(Cc5ccncc5)CC4)c(Cl)cnc3[nH]2)cc1 [Example 71, 2-[4-(6-chloro-7-{[1-(pyridin-4-ylmethyl)piperidin-4-yl]amino}-3H-imidazo[4,5-b]pyridin-2-yl)phenoxy]-N-methylacetamide] | 1900 | > 20000
7 | CNC(=O)COc1ccc(-c2nc3c(N[C@H]4CCN(Cc5ccc(F)c(F)c5)C4)c(Cl)cnc3[nH]2)cc1 [Example 34, 2-[4-(6-chloro-7-{[(3S)-1-(3,4-difluorobenzyl)pyrrolidin-3-yl]amino}-3H-imidazo[4,5-b]pyridin-2-yl)phenoxy]-N-methylacetamide] | 3110 | 17700
8 | CC(=O)NCCOc1ccc(-c2nc3c(NC4CCN(C)CC4)c(Cl)cnc3[nH]2)cc1 [Example 265, N-[2-(4-{6-chloro-7-[(1-methylpiperidin-4-yl)amino]-3H-imidazo[4,5-b]pyridin-2-yl}phenoxy)ethyl] acetamide] | 260 | > 20000
9 | Cc1ccc(CN2CCC(Nc3c(Cl)cnc4[nH]c(-c5ccc(OCC(=O)NCC(C)(C)N(C)C)cc5)nc34)CC2)cc1 [Example 27, 2-[4-(6-chloro-7-{[1-(4-methylbenzyl)piperidin-4-yl]amino}-3H-imidazo[4,5-b]pyridin-2-yl)phenoxy]-N-[2-(dimethylamino)-2-methylpropyl]acetamide] | 1420 | 14100
10 | CNC(=O)COc1ccc(-c2nc3c(NC4CCN(Cc5ccc(-n6cncn6)cc5)CC4)c(Cl)cnc3[nH]2)cc1 [Example 99, 2-{4-[6-chloro-7-({1-[4-(1H-1,2,4-triazol-1-yl)benzyl]piperidin-4-yl}amino)-3H-imidazo[4,5-b]pyridin-2-yl]phenoxy}-N-methylacetamide] | 270 | > 20000
11 | CNC(=O)CNc1ccc(-c2nc3c(NC4CCN(C)CC4)c(Cl)cnc3[nH]2)cc1 [Example 294, N^2-(4-(6-chloro-7-[(1-methylpiperidin-4-yl)amino]-3H-imidazo[4,5-b]pyridin-2-yl}phenyl)-N-methylglycinamide] | 360 | > 20000
12 | CN(C)CCNC(=O)COc1ccc(-c2nc3c(NC4CCN(CCc5ccccc5)CC4)c(Cl)cnc3[nH]2)cc1 [Example 3, 2-[4-(6-chloro-7-{[1-(2-phenylethyl)piperidin-4-yl]amino}-3H-imidazo[4,5-b]pyridin-2-yl)phenoxy]-N-[2-(dimethylamino)ethyl]acetamide] | 1200 | 9900
13 | CN1CCC(Nc2c(Cl)cnc3[nH]c(-c4ccc(OCC(=O)NCCC5CCOCC5)cc4)nc23)CC1 [Example 147, 2-(4-{6-chloro-7-[(1-methylpiperidin-4-yl)amino]-3H-imidazo[4,5-b]pyridin-2-yl}phenoxy)-N-[2-(tetrahydro-2H-pyran-4-yl)ethyl]acetamide] | 140 | > 20000
14 | CNC(=O)COc1cccc(-c2nc3c(NC4CCN(C)CC4)c(Cl)cnc3[nH]2)c1 [Example 117, 2-(3-{6-chloro-7-[(1-methylpiperidin-4-yl)amino]-3H-imidazo[4,5-b]pyridin-2-yl}phenoxy)-N-methylacetamide] | 320 | > 20000
15 | CNC(=O)COc1ccc(-c2nc3c(NC4CCN(Cc5ccc(NC(C)=O)cc5)CC4)c(Cl)cnc3[nH]2)cc1 [Example 75, 2-[4-(7-{[1-(4-acetamidobenzyl)piperidin-4-yl]amino}-6-chloro-3H-imidazo[4,5-b]pyridin-2-yl)phenoxy]-N-methylacetamide] | 1120 | > 20000
16 | CNC(=O)CCNc1ccc(-c2nc3c(NC4CCN(C)CC4)c(Cl)cnc3[nH]2)cc1 [Example 302, N^3-(4-{6-chloro-7-[(1-methylpiperidin-4-yl)amino]-3H-imidazo[4,5-b]pyridin-2-yl}phenyl)-N-methyl-b-alaninamide] | 620 | > 20000
17 | CN1CCC(Nc2c(Cl)cnc3[nH]c(-c4ccc(OCCNC(=O)c5ccncc5)cc4)nc23)CC1 [Example 272, N-[2-(4-{6-chloro-7-[(1-methylpiperidin-4-yl)amino]-3H-imidazo[4,5-b]pyridin-2-yl}phenoxy)ethyl]pyridine-4-carboxamide] | 250 | > 20000
18 | CNC(=O)COc1ccc(-c2nc3c(N(C)C4CCN(Cc5ccccc5)CC4)c(Cl)cnc3[nH]2)cc1 [Example 19, 2-(4-{7-[(1-benzylpiperidin-4-yl)(methyl)amino]-6-chloro-3H-imidazo[4,5-b]pyridin-2-yl}phenoxy)-N-methylacetamide] | 3230 | > 20000
19 | CNC(=O)COc1ccc(-c2nc3c(NC4CCN(Cc5c(C)nn(C)c5C)CC4)c(Br)cnc3[nH]2)cc1 [Example 288, 2-{4-[6-bromo-7-({1-[(1,3,5-trimethyl-1H-pyrazol-4-yl)methyl]piperidin-4-yl}amino)-3H-imidazo[4,5-b]pyridin-2-yl]phenoxy}-N-methylacetamide] | 400 | > 20000
20 | CNC(=O)COc1ccc(-c2nc3c(NC4CCN(C)CC4)c(Cl)cnc3[nH]2)cc1OC [Example 168, 2-(4-{6-chloro-7-[(1-methylpiperidin-4-yl)amino]-3H-imidazo[4,5-b]pyridin-2-yl}-2-methoxyphenoxy)-N-methylacetamide] | 250 | > 20000
21 | CNC(=O)COc1ccc(-c2nc3c(NC4CCN(C5CCCCC5)CC4)c(Cl)cnc3[nH]2)cc1 [Example 56, 2-(4-{6-chloro-7-[(1-cyclohexylpiperidin-4-yl)amino]-3H-imidazo[4,5-b]pyridin-2-yl}phenoxy)-N-methylacetamide] | 370 | > 20000
22 | CNC(=O)COc1ccc(-c2nc3c(NC4CCN(C)CC4)c(Br)cnc3[nH]2)cc1F [Example 184, 2-(4-{6-bromo-7-[(1-methylpiperidin-4-yl)amino]-3H-imidazo[4,5-b]pyridin-2-yl}-2-fluorophenoxy)-N-methylacetamide] | 110 | > 20000
23 | CNC(=O)COc1ccc(-c2nc3c(N[C@H]4CCN(Cc5ccc(OC)cc5)C4)c(Cl)cnc3[nH]2)cc1 [Example 43, 2-[4-(6-chloro-7-{[(3S)-1-(4-methoxybenzyl)pyrrolidin-3-yl]amino}-3H-imidazo[4,5-b]pyridin-2-yl)phenoxy]-N-methylacetamide] | 1740 | > 20000
24 | CN(C)CCNC(=O)COc1ccc(-c2nc3c(N[C@H]4CCN(Cc5ccccc5)C4)c(Cl)cnc3[nH]2)cc1 [Example 2, 2-[4-(7-{[(3S)-1-benzylpyrrolidin-3-yl]amino}-6-chloro-3H-imidazo[4,5-b]pyridin-2-yl)phenoxy]-N-[2-(dimethylamino)ethyl]acetamide] | 1300 | 13800
25 | CNC(=O)COc1ccc(-c2nc3c(NC4CCN(CCOc5ccccc5)CC4)c(Cl)cnc3[nH]2)cc1 [Example 96, 2-[4-(6-chloro-7-{[1-(2-phenoxyethyl)piperidin-4-yl]amino}-3H-imidazo[4,5-b]pyridin-2-yl)phenoxy]-N-methylacetamide] | 310 | 13600
26 | CCN1CC[C@H](Nc2c(Cl)cnc3[nH]c(-c4ccc(OCC(=O)NC)cc4)nc23)C1 [Example 132, 2-[4-(6-chloro-7-{[(3S)-1-ethylpyrrolidin-3-yl]amino}-3H-imidazo[4,5-b]pyridin-2-yl)phenoxy]-N-methylacetamide] | 860 | > 20000
